Data published in patent US20130095122A1, “Peptides or Antibodies Which Bind to Melanoma Inhibitory Activity (MIA) Protein” (priority 2010, published 2013).

Tests used:
[1] = molecular target: T1, MIA-MIA interaction (MIA-Ru(bpy)3 / immobilized MIA-biotin) (Homo sapiens, UniProt Q16674); test: heterogeneous transition-metal based fluorescence polarization (HTFP) assay of MIA-MIA interaction; format: binding; settings: MIA-Ru(bpy)3 55 fM in wells coated with MIA-biotin
T1 sequence (Q16674 25-131): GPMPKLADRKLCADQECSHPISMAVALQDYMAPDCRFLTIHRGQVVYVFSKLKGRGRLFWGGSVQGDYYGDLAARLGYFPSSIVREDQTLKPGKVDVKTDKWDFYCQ
Description: This becomes particularly evident in a heterogeneous transition metal-based fluorescence polarization assay (HTFP assay), wherein the ratio P/P0 is measured. P is the fluorescence polarization signal of a MIA protein labeled with a transition metal complex in the presence of substrate bound MIA-protein and of the peptide or antibody to be tested. P0 is the fluorescence polarization signal of free MIA-protein labeled with said luminescent transition metal complex in the absence of substrate bound MIA-protein and in the absence of said peptide or antibody. In the absence of the peptide or antibody, usually, the labeled MIA-protein would interact with the substrate bound MIA-protein, which, in turn, would contribute to a reduction in rotational mobility of the labeled MIA-protein, and therefore, the fluorescence polarization signal would increase upon such interaction. If, additionally, a peptide or antibody is present that interferes with such interaction, no or little dimerization/aggregation occurs and no or little increase in fluorescence polarization signal would be detected. […]
All measurements were performed at RT on a Polarstar Optima microplate reader (BMG Labtech, Offenburg, Germany). […]

[2] = test system: murine B16 melanoma cells; test: In vivo metastasis assay, Sig-AR71-HisTag expressing B16 clone injected into spleen; settings: mice injected with Sig-AR71-HisTag expressing clone
Description: To determine the effect of peptide AR71 on the metastatic potential of murine B16 melanoma cells in vivo, a previously developed mouse metastases model was used.^19 1×10^5 cells of the AR71-HisTag expressing B16 cell clone AR71-His K4 as well as the corresponding mock control cells were injected into the spleen of mice (n=8 for mock control cells as well as for AR71-HisTag K4 cells, respectively). After nine days, mice were sacrificed, the livers were resected and the number and size of visible black tumor nodules on the surface of the livers was noticed. Tissues were fixed in formalin and afterwards paraffin embedded sections were hematoxylin and eosin stained for histological analysis.
Nine days after injection of the cells into the spleen, the mice were sacrificed, the livers were resected and tissue sections were prepared. Here, the inventors used the stably transfected murine B16 melanoma cells with a Sig-AR71-HisTag containing construct. […] The interference of AR71-HisTag with MIA-MIA interaction was also confirmed in the HTFP assay using wells coated with MIA-biotin (data not shown). Subsequently, a Sig-AR71-HisTag clone as well as a corresponding mock control was injected into the spleen of C57B16 mice, respectively. […]

## Ac-FHWRYPLPLPGQ-NH2 [AR71, FHWRYPLPLPGQ]
[1]
  interference with MIA-MIA interaction (decrease in fluorescence polarization signal, P/P0): particularly potent in dissociating MIA dimers
[2]
  adverse effects on other organs and tissues: No adverse effects
